From patent publication US20080051466A1, “Isoalpha acid based protein kinase modulation cancer treatment” (Metaproteomics, LLC, priority 2006, published 2008)

Experiments:
Experiment in all cases: KinaseProfiler Assay
Assay type in all cases: biochemical
CK1δ = CK1δ (Homo sapiens, UniProt P48730); settings: read-out: CK1δ, % of Control
ZIPK = ZIPK (Homo sapiens, UniProt O43293); settings: read-out: ZIPK, % of Control
Fer = Fer (Homo sapiens, UniProt P16591); settings: read-out: Fer, % of Control
MSSK1 = MSSK1 (Homo sapiens, UniProt Q9UPE1); settings: read-out: MSSK1, % of Control
PKA = PKA (Homo sapiens, UniProt P17612); settings: read-out: PKA, % of Control
FGFR2 = FGFR2 (Homo sapiens, UniProt P21802); settings: read-out: FGFR2, % of Control
PKBα = PKBα (Homo sapiens, UniProt P31749); settings: read-out: PKBα, % of Control
TrkB = TrkB (Homo sapiens, UniProt Q16620); settings: read-out: TrkB, % of Control
MAPKAP-K3 = MAPKAP-K3 (Homo sapiens, UniProt Q16644); settings: read-out: MAPKAP-K3, % of Control
CHK1 = target: T1, CHK1 (Homo sapiens, UniProt O14757); settings: read-out: CHK1, % of Control
T1 sequence (O14757 1-476): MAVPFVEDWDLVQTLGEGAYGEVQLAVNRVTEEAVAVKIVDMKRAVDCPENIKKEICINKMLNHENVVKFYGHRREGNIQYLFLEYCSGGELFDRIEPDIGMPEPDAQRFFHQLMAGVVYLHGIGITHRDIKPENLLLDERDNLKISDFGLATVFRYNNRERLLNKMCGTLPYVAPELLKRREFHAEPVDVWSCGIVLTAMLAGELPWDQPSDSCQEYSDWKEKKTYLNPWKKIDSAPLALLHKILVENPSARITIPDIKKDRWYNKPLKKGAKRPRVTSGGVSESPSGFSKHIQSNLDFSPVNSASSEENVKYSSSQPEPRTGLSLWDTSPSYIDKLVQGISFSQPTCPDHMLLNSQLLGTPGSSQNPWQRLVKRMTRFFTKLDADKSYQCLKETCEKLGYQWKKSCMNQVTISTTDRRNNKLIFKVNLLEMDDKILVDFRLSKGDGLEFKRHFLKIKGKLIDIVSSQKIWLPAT

CDK5/p35 = CDK5/p35 (Homo sapiens, UniProt Q00535); settings: read-out: CDK5/p35, % of Control
cKit(D816H) = cKit(D816H) (Homo sapiens, UniProt P10721, D816H); settings: read-out: cKit(D816H), % of Control
CaMKI = CaMKI (Homo sapiens, UniProt Q14012); settings: read-out: CaMKI, % of Control
Ron = Ron (Homo sapiens, UniProt Q04912); settings: read-out: Ron, % of Control
Chain of Ron (Q04912 25-1400): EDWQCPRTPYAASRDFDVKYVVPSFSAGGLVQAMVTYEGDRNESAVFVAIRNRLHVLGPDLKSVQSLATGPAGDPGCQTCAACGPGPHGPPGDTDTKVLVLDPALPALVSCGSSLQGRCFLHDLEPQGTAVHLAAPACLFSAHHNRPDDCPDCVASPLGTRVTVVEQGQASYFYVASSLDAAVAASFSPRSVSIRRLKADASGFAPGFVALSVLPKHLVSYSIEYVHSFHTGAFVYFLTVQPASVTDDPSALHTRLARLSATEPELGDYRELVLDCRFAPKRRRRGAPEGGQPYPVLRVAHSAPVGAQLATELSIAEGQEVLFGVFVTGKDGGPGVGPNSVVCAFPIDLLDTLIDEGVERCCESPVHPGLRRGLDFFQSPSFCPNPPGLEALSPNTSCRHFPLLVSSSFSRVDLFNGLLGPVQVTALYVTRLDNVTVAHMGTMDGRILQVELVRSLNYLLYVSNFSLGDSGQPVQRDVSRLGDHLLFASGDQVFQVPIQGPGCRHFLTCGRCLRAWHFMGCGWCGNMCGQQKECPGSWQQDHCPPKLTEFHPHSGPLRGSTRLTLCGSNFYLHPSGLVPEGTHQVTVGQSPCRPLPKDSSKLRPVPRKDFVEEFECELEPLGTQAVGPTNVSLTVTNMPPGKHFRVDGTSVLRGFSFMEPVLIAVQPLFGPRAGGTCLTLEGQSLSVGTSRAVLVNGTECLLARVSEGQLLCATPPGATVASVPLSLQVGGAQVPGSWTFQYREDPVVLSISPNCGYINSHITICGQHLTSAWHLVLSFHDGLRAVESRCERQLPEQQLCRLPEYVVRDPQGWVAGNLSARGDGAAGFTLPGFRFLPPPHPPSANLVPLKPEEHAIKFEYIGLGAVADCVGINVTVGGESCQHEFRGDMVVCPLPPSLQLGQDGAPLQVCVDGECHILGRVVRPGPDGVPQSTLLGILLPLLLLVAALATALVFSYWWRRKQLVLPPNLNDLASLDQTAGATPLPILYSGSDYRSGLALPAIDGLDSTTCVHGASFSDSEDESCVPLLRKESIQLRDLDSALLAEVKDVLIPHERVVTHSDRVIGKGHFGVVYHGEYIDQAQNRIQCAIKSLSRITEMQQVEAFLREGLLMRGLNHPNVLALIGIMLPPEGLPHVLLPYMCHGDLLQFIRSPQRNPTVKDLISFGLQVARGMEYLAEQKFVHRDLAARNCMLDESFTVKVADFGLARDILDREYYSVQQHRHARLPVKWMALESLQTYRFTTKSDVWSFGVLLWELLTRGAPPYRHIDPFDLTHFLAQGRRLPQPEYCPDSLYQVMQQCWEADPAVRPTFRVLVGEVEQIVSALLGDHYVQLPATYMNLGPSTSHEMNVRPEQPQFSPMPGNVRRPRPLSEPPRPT

Chain of cKit(D816H) (P10721 26-976 D816H): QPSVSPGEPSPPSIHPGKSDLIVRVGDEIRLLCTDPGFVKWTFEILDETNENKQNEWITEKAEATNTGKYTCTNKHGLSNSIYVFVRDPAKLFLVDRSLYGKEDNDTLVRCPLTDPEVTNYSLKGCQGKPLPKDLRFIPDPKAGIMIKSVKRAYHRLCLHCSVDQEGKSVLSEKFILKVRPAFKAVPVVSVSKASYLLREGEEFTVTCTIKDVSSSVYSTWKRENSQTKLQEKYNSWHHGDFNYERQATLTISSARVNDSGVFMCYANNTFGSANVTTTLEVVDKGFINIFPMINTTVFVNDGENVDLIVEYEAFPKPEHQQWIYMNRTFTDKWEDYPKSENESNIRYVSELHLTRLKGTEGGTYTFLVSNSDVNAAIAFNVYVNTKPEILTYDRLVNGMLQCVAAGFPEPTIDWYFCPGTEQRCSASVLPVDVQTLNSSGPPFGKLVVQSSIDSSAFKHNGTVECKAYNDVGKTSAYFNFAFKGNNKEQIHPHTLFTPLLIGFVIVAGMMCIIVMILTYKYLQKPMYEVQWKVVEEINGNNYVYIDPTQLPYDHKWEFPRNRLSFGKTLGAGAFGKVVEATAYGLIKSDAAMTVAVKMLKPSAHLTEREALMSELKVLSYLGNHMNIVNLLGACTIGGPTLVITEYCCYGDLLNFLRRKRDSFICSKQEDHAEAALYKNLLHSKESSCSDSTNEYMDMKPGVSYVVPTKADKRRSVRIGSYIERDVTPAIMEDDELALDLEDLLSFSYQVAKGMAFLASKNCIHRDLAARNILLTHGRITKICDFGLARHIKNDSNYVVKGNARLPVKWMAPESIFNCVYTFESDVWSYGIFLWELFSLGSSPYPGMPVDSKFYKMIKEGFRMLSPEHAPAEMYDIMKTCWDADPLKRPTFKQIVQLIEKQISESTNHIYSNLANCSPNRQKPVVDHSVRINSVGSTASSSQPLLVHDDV
Chain of ZIPK (O43293 whole entry): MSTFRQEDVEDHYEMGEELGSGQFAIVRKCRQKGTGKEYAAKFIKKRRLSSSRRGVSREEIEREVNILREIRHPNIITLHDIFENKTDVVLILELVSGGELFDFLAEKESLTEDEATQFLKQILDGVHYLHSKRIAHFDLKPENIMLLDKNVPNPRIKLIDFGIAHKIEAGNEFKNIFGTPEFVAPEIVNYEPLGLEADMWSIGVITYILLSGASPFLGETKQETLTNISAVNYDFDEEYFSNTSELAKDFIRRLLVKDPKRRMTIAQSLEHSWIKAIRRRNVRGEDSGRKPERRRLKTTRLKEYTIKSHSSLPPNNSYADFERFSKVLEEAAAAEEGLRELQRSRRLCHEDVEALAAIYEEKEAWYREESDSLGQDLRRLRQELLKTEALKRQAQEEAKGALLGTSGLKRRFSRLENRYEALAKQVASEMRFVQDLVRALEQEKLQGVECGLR
Chain of MSSK1 (Q9UPE1 whole entry): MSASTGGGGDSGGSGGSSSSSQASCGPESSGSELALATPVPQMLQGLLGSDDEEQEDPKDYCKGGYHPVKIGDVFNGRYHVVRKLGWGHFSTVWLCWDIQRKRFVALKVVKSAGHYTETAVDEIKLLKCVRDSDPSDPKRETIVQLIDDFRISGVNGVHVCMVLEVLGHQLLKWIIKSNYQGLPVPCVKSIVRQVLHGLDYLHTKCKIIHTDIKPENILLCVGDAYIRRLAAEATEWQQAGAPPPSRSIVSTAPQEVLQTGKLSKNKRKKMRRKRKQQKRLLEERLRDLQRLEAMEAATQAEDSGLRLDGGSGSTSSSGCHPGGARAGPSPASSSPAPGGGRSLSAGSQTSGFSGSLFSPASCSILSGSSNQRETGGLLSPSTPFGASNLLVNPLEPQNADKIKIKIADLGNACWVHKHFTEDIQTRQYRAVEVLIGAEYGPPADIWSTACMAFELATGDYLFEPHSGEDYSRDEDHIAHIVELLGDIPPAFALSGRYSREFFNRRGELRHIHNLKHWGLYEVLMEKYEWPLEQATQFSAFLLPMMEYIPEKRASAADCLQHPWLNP
Chain of TrkB (Q16620 32-822): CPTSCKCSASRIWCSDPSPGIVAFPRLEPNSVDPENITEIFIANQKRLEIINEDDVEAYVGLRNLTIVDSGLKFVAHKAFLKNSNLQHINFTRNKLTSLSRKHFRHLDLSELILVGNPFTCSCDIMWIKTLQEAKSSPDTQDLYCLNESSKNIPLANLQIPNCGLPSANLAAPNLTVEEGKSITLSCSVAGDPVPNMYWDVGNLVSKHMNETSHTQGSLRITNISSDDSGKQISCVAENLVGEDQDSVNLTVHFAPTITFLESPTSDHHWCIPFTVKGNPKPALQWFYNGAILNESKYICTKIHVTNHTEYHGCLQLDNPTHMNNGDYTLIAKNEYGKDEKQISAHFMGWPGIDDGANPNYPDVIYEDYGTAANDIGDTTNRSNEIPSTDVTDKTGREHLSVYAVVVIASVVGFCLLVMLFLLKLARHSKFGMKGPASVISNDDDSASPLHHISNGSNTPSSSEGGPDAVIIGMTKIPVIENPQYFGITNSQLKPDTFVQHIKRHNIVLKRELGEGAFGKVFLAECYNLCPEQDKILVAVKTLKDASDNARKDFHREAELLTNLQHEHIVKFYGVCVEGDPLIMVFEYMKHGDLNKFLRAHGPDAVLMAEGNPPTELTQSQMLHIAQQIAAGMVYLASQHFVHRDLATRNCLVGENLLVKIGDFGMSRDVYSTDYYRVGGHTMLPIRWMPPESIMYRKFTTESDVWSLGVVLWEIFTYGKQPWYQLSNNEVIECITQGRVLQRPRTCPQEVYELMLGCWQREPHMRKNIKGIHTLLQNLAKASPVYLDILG
Chain of FGFR2 (P21802 22-821): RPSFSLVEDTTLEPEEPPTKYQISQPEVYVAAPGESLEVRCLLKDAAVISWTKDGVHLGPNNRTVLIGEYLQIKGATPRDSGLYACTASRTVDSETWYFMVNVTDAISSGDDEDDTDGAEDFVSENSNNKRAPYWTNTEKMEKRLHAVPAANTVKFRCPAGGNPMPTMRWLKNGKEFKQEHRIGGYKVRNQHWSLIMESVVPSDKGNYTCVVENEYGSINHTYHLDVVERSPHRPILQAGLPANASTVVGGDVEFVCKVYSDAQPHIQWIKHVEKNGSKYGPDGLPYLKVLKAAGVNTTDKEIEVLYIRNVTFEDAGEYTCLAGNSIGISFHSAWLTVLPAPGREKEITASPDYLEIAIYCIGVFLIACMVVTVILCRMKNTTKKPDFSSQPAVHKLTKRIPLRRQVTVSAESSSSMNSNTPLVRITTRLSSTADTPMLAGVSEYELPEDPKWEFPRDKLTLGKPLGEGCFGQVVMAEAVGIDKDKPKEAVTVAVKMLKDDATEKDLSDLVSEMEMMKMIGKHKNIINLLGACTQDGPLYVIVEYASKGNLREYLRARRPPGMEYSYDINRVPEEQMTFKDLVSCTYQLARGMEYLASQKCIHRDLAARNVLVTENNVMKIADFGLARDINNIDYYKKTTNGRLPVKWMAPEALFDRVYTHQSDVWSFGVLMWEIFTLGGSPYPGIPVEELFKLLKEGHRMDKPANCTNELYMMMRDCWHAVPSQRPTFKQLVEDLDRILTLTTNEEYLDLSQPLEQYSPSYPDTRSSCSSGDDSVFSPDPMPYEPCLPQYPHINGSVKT

## COc1cc(O)c(CC=C(C)C)c(O)c1C(=O)/C=C/c1ccc(O)cc1 [Xanthohumol, xanthohumol]
CK1δ; 5 ug/ml
  remaining activity at 5 µg/mL: 32%
CK1δ; 25 ug/ml
  remaining activity at 25 µg/mL: 16%
CK1δ; 50 ug/ml
  remaining activity at 50 µg/mL: 12%
ZIPK; 1 ug/ml
  remaining activity at 1 µg/mL: 115%
ZIPK; 5 ug/ml
  remaining activity at 5 µg/mL: 74%
ZIPK; 25 ug/ml
  remaining activity at 25 µg/mL: 20%
ZIPK; 50 ug/ml
  remaining activity at 50 µg/mL: 70%
Fer; 1 ug/ml
  remaining activity at 1 µg/mL: 55%
Fer; 5 ug/ml
  remaining activity at 5 µg/mL: 20%
Fer; 25 ug/ml
  remaining activity at 25 µg/mL: 10%
Fer; 50 ug/ml
  remaining activity at 50 µg/mL: 1%
MSSK1; 1 ug/ml
  remaining activity at 1 µg/mL: 47%
MSSK1; 5 ug/ml
  remaining activity at 5 µg/mL: 11%
MSSK1; 25 ug/ml
  remaining activity at 25 µg/mL: 7%
MSSK1; 50 ug/ml
  remaining activity at 50 µg/mL: 5%
PKA; 1 ug/ml
  remaining activity at 1 µg/mL: 105%
PKA; 5 ug/ml
  remaining activity at 5 µg/mL: 109%
PKA; 25 ug/ml
  remaining activity at 25 µg/mL: 98%
PKA; 50 ug/ml
  remaining activity at 50 µg/mL: 21%
FGFR2; 1 ug/ml
  remaining activity at 1 µg/mL: 116%
FGFR2; 5 ug/ml
  remaining activity at 5 µg/mL: 89%
FGFR2; 25 ug/ml
  remaining activity at 25 µg/mL: 36%
PKBα; 1 ug/ml
  remaining activity at 1 µg/mL: 102%
PKBα; 25 ug/ml
  remaining activity at 25 µg/mL: 18%
PKBα; 50 ug/ml
  remaining activity at 50 µg/mL: 5%
TrkB; 1 ug/ml
  remaining activity at 1 µg/mL: 95%
TrkB; 5 ug/ml
  remaining activity at 5 µg/mL: 89%
TrkB; 25 ug/ml
  remaining activity at 25 µg/mL: 58%
TrkB; 50 ug/ml
  remaining activity at 50 µg/mL: 3%
MAPKAP-K3; 25 ug/ml
  remaining activity at 25 µg/mL: 17%
MAPKAP-K3; 50 ug/ml
  remaining activity at 50 µg/mL: 7%
CHK1; 1 ug/ml
  remaining activity at 1 µg/mL: 121%
CHK1; 5 ug/ml
  remaining activity at 5 µg/mL: 126%
CHK1; 25 ug/ml
  remaining activity at 25 µg/mL: 142%
CHK1; 50 ug/ml
  remaining activity at 50 µg/mL: 149%
CDK5/p35; 25 ug/ml
  remaining activity at 25 µg/mL: 41%
CDK5/p35; 50 ug/ml
  remaining activity at 50 µg/mL: 44%
cKit(D816H); 1 ug/ml
  remaining activity at 1 µg/mL: 94%
cKit(D816H); 5 ug/ml
  remaining activity at 5 µg/mL: 45%
cKit(D816H); 25 ug/ml
  remaining activity at 25 µg/mL: 14%
CaMKI; 1 ug/ml
  remaining activity at 1 µg/mL: 142%
CaMKI; 25 ug/ml
  remaining activity at 25 µg/mL: 3%
Ron; 1 ug/ml
  remaining activity at 1 µg/mL: 135%
Ron; 5 ug/ml
  remaining activity at 5 µg/mL: 127%
Ron; 25 ug/ml
  remaining activity at 25 µg/mL: 60%
Ron; 50 ug/ml
  remaining activity at 50 µg/mL: 69%
